Experimental findings from patent US7674813B2, “Heterocyclic sulfonamide inhibitors of beta amyloid production containing an azole” (Wyeth, priority 2004, dated 2010) are described below.

The test system of one experiment is beta amyloid 42. The experiment is described as follows: Aβ40/42 ELISA Assay (Aβ42). It counts as cell-based. Particulars: CHO cells carrying the APP-REP-NL plasmid, 22 hours, sandwich ELISA; for EC50: Cricetulus griseus. Here is the method:
(§1) Compounds are diluted from DMSO stocks to 2 μM and below in a cell culture medium. Compounds are then applied to CHO cells carrying the APP-REP-NL plasmid [Sudhir et. al, J. Biolog. Chem. 267:25602-25608 (1992)] for a period of 22 hours. After the conditioning period, medium is collected, diluted in assay buffer containing protein, and samples, controls, and synthetic peptide standards are incubated on a prepared ELISA plate. Using a sandwich ELISA with antibodies specifically directed against the carboxyl terminus of beta amyloid 40 or 42 (analogous to the method reported by Haugabook et al., J. Neurosci. Methods 108:171-179 (2001) but using goat anti-mouse IgG1 (source: Southern Biotech) as the anchor, 6E10 as the capture antibody (Source: SENETEK), rabbit antiAβ40 and antiAβ42 (source: QCB) and APL-donkey anti-rabbit IgG (H+L, source: Southern Biotech) as the detection antibody), the effect of the compound treatment on the cellular production of extracellular beta amyloid is quantified. Cells treated with compound are subsequently incubated in cell culture medium containing MTS-formazan. After a short incubation period, MTS/medium containing plates are read in a spectrophotometer to determine the extent to which compound toxicity affected the cell's metabolism and ability to synthesize beta amyloid.
(§2) A. Test Samples: compound samples are supplied as 20 mM stock solutions in a 100% DMSO solution.
(§3) B. APP-REP-NL cells: Qualified cell lines are carried from week to week using 1:100 dilutions and are cultured in DMEM supplemented with 1× antibiotic/antimycotic, 200 ug/ml of G418 antibiotic, and 10% certified fetal calf serum. Cells are also banked in liquid nitrogen. Periodically, beta amyloid production is assessed, and cells are either kept in culture or replaced with progenitors at full expression.
(§4) C. Antibodies: From certified lots that have already been qualified in this assay. Antibodies are stored in small frozen aliquots at −80° C. that are thawed and used.
(§5) A compound is considered active if it has an EC50 for Aβ40 reduction of <100 μM and no toxicity at doses in the vicinity of the EC50.

For a further experiment, the system named is beta amyloid 40. The experiment is described as follows: Aβ40/42 ELISA Assay (Aβ40). In kind it is cell-based. Particulars: Cricetulus griseus; CHO cells carrying the APP-REP-NL plasmid, 22 hours, sandwich ELISA. As for the experimental part: as §1, §2, §3, §4, §5

In the case of `CC(C)[C@@H](NS(=O)(=O)c1ccc(Cl)s1)c1ccnn1-c1ccc(F)cc1` (stereo in doubt) [Example 41, 5-Chloro-N-{(1R)-1-[1-(4-fluorophenyl)-1H-pyrazol-5-yl]-2-methylpropyl}thiophene-2-sulfonamide], in the experiment with beta amyloid 42, the “Effect on Aβ42 production” value was “increase”. The EC50 in the experiment on beta amyloid 40 amounted to 21.9 µM.

Take `CC(C)[C@H](NS(=O)(=O)c1ccc(Cl)s1)c1ccnn1-c1ccc(F)cc1` (stereo in doubt) [Example 42, 5-Chloro-N-{(1S)-1-[1-(4-fluorophenyl)-1H-pyrazol-5-yl]-2-methylpropyl}thiophene-2-sulfonamide]: the concentration giving a half-maximal response (EC50) in the experiment with beta amyloid 42 and with beta amyloid 40 was 1 µM throughout.

`CCC(CC)C(NS(=O)(=O)c1ccc(Cl)s1)c1ccnn1-c1ccccc1` (centres unmarked) [Example 17, 5-Chloro-N-[2-ethyl-1-(1-phenyl-1H-pyrazol-5-yl)butyl]thiophene-2-sulfonamide]: the EC50 with beta amyloid 42 is 10 µM; with beta amyloid 40, 4.2 µM.

Take `O=S(=O)(NC(Cc1ccccc1)c1ccnn1-c1ccc(F)cc1)c1ccc(Cl)s1` (centres unmarked) [Example 35, 5-Chloro-N-{1-[1-(4-fluorophenyl)-1H-pyrazol-5-yl]-2-phenylethyl}thiophene-2-sulfonamide]: the concentration for a half-maximal effect (EC50) in the experiment on beta amyloid 42 was determined as 67.2 µM; in the experiment with beta amyloid 40, 12.8 µM.
